We go through 1 compound from patent publication US8722661B2, “Pyrrolopyrimidone and pyrrolopyridone inhibitors of tankyrase” (Genentech, Inc., priority 2012, dated 2014).

The test addresses T1, Tankyrase 1 (Homo sapiens, UniProt O95271).
T1 sequence (O95271 1-1327): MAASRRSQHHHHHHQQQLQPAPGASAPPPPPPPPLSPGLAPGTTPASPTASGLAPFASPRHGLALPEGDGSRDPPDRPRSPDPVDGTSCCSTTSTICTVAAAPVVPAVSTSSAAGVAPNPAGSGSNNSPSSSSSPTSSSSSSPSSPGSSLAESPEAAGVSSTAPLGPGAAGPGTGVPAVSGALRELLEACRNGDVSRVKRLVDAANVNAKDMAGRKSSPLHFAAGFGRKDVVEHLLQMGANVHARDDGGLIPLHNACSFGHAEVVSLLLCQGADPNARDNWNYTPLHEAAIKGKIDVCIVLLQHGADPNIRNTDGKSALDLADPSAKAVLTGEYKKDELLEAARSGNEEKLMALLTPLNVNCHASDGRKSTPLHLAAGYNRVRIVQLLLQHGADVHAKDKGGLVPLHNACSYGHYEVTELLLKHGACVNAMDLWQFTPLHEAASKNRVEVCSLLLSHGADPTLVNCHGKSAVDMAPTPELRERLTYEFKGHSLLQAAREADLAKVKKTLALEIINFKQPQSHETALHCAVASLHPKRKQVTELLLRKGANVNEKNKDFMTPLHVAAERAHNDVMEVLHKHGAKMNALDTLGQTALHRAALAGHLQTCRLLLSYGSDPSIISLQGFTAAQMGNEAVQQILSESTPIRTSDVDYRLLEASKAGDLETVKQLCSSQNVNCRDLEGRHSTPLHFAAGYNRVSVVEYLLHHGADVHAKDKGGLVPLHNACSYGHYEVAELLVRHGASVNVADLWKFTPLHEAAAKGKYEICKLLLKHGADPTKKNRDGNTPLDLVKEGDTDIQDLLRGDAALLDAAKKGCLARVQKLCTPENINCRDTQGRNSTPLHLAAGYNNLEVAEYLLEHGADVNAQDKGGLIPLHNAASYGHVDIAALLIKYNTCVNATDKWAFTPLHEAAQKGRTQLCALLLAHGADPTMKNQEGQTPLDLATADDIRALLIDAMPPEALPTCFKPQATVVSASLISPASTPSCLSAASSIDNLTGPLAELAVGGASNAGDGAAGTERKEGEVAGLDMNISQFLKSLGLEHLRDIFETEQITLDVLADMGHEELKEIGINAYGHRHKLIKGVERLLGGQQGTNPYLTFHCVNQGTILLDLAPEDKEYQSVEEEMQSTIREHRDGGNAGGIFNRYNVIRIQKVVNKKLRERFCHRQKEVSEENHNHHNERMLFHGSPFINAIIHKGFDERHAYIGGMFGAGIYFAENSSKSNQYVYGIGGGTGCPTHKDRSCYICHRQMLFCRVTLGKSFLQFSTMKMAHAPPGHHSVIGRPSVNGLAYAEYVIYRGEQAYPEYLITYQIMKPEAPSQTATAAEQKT
As to the kind of experiment: TNKS1 NAM assay (NADase activity, released nicotinamide by LC-MS). The format is biochemical. The settings on record: Table I, value marked with superscript 2 (footnote not given), taken as the second assay. The method, then: NADase activity of Tankyrase 1 was measured by quantifying released nicotinamide using liquid chromatography mass spectrometry. Varying concentrations of experimental compounds were incubated in 10 μL reactions containing 25 nM recombinant Tankyrase 1, 1 mM NAD+, 5 μM d4-nicotinamide internal standard, 2% DMSO, 50 mM Tris pH 7.5, 5 mM CaCl2, and 0.01% Triton X-100 for 1 h at RT. Reactions were quenched by mixing 2 μL of the reaction mixture with 98 μL of 0.05% formic acid. 1 μL of quenched reaction was loaded onto a reverse phase BEH-Phenyl column (Waters) pre-equilibrated with 1 mM ammonium formate and eluted with a linear gradient to 80% acetonitrile. Compound IC50s were determined by four-parameter curve fitting.
Representative compound data for assays are listed below in Table I. Values are in uM.

What is called IC50 is the concentration at which inhibition is half-maximal.

As for `COCCOc1cc(F)c(N2CCN(c3nc4c(ccn4CCO)c(=O)[nH]3)CC2)c(F)c1` [Example 63, 2-[4-[2 6-difluoro-4-(2-methoxyethoxy)phenyl]piperazin-1-yl]-7-(2-hydroxyethyl)-3H-pyrrolo[2,3-d]pyrimidin-4-one], the IC50 stood at 9.67 nM.
